# Source: US6605754B1, “DNA constructs and plants incorporating them” (priority 1992, dated 2003)
# How the values were obtained:
# [1] = system: alcA:35S chimeric promoter (CAT reporter gene expression); assay: CAT expression from wild type A nidulans alcA-CAT transformants GA2-1 and GA2-5; format: cell-based, Aspergillus nidulans
# Experimental: Conidial suspensions of A nidulans were grown in supplemented minimal medium containing 0.1% fructose as the carbon source, for 20 hours at 200 revs/min in an orbital incubator at 37° C. Inducing chemical was added to the mycelia at 20 hours and allowed to grow for a further 4 hours. The mycelia was harvested as before. Uninduced mycelia was allowed to grow for 24 hours in the medium described above.
# 300 mgs of mycelia, frozen in liquid nitrogen, was ground in a chilled pestle and mortar with an equal amount of acid washed sand for 20 seconds. 1 ml of extraction buffer, (0.1 M Tris pH 7.5), was added and the mycelia ground for a further 30 seconds. Another 1 ml of extraction buffer was added and the mycelia was ground again for 30 seconds. 1 ml of the ground mycelia mixture was transferred into eppendorfs and centrifuged at 13,000 revs/min for 5 minutes in a microcentrifuge. The supernatant was transferred to new eppendorfs and the protein concentration estimated using the Bradford's assay.
# Stably transformed A nidulans was obtained by co-transforming a pyrG89 strain with the pDJB3 and palcA-CAT/pUC plasmids using the PEG method. Plasmid palcA-CAT/pUC contains the CAT reporter gene between the alcA:35S chimeric promoter and the nos transcription terminator. Two independent transformants (GA2-1 and GA2-5) were obtained which contained uninterrupted copies of the alcA-CAT construct. This was shown by probing genomic DNA, restricted with HindIII, with the 0.7 kb SalI fragment of the CAT gene.
# The CAT activity of the alcA-CAT A nidulans transformants was measured when they were grown under a variety of conditions. FIG. 4 is a graph showing CAT expression from the GA2-1 and GA2-5 transformants (wild type with alcA-CAT construct) growing in 0.1% fructose (F) or 1% glucose (G) in the absence or presence of 50 mM ethyl methyl ketone as inducer (I). […] The induction of CAT was prevented when the transformants were grown in 1% glucose even in the presence of inducer indicating the carbon catabolyte repression function of the alcA promoter was retained.
# FIG. 5 is a graph showing the effect of cyclohexanone concentration (mM) on CAT expression in the transformant GA2-1 growing in 0.1% fructose (F) or 1% glucose (G).
# [2] = system: alc expression cassette 35S-alcR/alcA-CAT (CAT reporter gene expression); assay: CAT activity in leaves of stably transformed tobacco after leaf paint with inducer; format: in vivo
# Experimental: Cyclohexanone was applied to the plant leaves as a paint. The cyclohexanone paint consisted of a 10% solution of 950 g/L cyclohexanone, 35 g/L syperonic NDE 1800, 16.5 g/L Tween 85 in thickener. Both surfaces of the leaf were applied with paint at 100 μl solution per 16-25 cm^2 of leaf surface, on days 0 and 2. Leaf tissue was harvested prior to inducer application and at appropriate times after the second application of paint. 1 cm^2 of leaf tissue was removed with a sterile scalpel, put in an eppendorf, and immersed in liquid nitrogen. CAT assays were undertaken within 4 hours of leaf sampling.
# The leaf tissue was allowed to defrost at room temperature for several minutes after storage in liquid nitrogen. A sterile micropestle was used to grind the leaf tissue in the eppendorf for 30 seconds and then 100 μl of 100 mM Tris pH 7.8 was added. The plant mixture was then vortexed for 20 seconds and centrifuged at 13,000 revs/min for 5 minutes. The supernatant was transferred to a new eppendorf. 50 μl of leaf extract was used for a CAT assay and the rest was used to determine the protein concentration wit the Bradford's method.
# CAT assays were undertaken according to the Dupont method as described in Example 4.
# The data obtained from this analysis are shown in FIG. 9: at each time point, results are given in the order S34:D3:T1. Leaves were treated with cyclohexanone leaf paint on day 0 and day 2. Samples of leaf tissue were taken immediately prior to each treatment (0-0 and 2-0 in FIG. 9) and thereafter at seven intervals up until day 3. Protein extracts were made from the leaf samples and CAT activity determined in the samples using the diffusion assay described above.
# The leaves of the plants were painted with a 10% iso-propanol solution at 0 and 60 minutes and the CAT expression of leaf samples was measured at 240 minutes. The CAT expression found in the alcA-CAT and alcA-CAT/35S-alcR transgenic plants at 0 minutes was low as it was in the control untransformed tobacco plants.
# [3] = system: ADHI expressed from the alcA gene; settings: Creaser et al 1984 / shown previously; cited from earlier work
SMILES,"CAT activity of the alcA-CAT reporter construct ([1]; GA2-1 and GA2-5, 0.1% fructose, 50 mM inducer)","induction of CAT ([1]; GA2-1 and GA2-5, 1% glucose, 50 mM inducer)",concentration of optimal inducing ability (concentration curve) ([1]; GA2-1 transformant),induction of CAT expression ([1]; GA2-1 transformant),effect on CAT activity [2],"CAT expression level after application to leaves ([2]; plant D3 (35S-alcR/alcA-CAT), cyclohexanone leaf paint)","time of peak CAT activity after the second inducing treatment ([2]; plant D3, leaf paint on day 0 and day 2)",CAT activity as % of the maximum activity seen in the 35S-alcR/alcA-CAT leaves ([2]; plants T1 and S34 after cyclohexanone leaf paint),inducer strength for alcA / ADHI [3],"increase in CAT activity ([2]; 10% solution painted at 0 and 60 minutes, measured at 240 minutes, alcA-CAT, alcA-CAT/35S-alcR and control plants)",effect on the alc expression cassette ([2]; tobacco plants)
"CCC(C)=O [EMK, butan-2-one (ethyl methyl ketone)]",high,prevented,,,,,,,,,
O=C1CCCCC1 [cyclohexanone],,,25 mM,found to induce CAT expression,no effect,high CAT expression level,160 min,5-20%,potent inducer,,
"CC(C)O [iso-propanol, propan-2-ol]",,,,,,,,,weak inducer,no significant increase,no apparent effect
